From the NIST ThermoML archive (doi:10.1021/je800345j)
± gives the expanded uncertainty stated by the source.

Key:
[1] = 298.15 K; 101.33 kPa; Liquid
[2] = refractive index (Na D-line) (dimensionless); conditions: 293.15 K; 101.33 kPa; Liquid; Standard Abbe refractometry

mass density [1] [kg/m3]	refractive index [2]	SMILES
927.8 ± 0.3	1.4033 ± 0.0004	C=C(C)OC(C)=O [1-methylvinyl ethanoate]
971.9 ± 0.3	1.4491 ± 0.0004	CC(=O)CC(C)=O [2,4-pentanedione]
1047.4 ± 0.3	1.372 ± 0.0004	CC(=O)O [acetic acid]
